US9538763B2, “Cleaning, disinfecting and microbicidal compositions” (priority 2009, dated 2017)

Experiments:
Format in all cases: cell-based
[1] = tested on: Staphylococcus aureus; assay: modified detergent and germicidal sanitizer test of the A.O.A.C.; conditions: 50 ppm hypochlorite control
Experimental: (§1) The microbicidal efficacy of the microbicidal disinfecting compositions of Examples 1-3 (compositions A-C) were evaluated with 50 ppm of hypochlorite as a control against Staphylococcus aureus and Escherichia coli by the modified detergent and germicidal sanitizer test of the A.O.A.C. (Lopes, 1986).

[2] = tested on: Escherichia coli; assay: as above; conditions: 50 ppm hypochlorite control
Experimental: as §1

[3] = tested on: Salmonella; assay: treatment of Salmonella-contaminated tomatoes; conditions: 150 ppm
Experimental: The microbicidal efficacy of the microbicidal disinfecting composition of Example 1 (composition A) was further tested and proven effective against Salmonella on contaminated tomatoes. When Salmonella-contaminated tomatoes were treated with 0.1% solution of composition A, the viable bacterial population was reduced by 2.31 log10 CFU as compared with 2.11 log10 CFU with 150 ppm of hypochlorite.

For `OCl` [Hypochlorite, hypochlorite], the “% Kill Staph. aureus” value [1] was over 99.999%, the “% Kill E. coli” value [2] was over 99.999% and the “reduction of viable bacterial population” value [3] was 2.11 log10 CFU.
